Values quoted from earlier work as cited in patent US7625708B1 (priority 2005, dated 2009).

Experiments:
[1] = test system: NAD(P)H: Quinone Oxidoreductase I (NQO I)
[2] = test system: Glutathion-S-Transferase (GST)
[3] = test system: Cytochrome P450 1A1 (CYP 1A1)
[4] = test system: Aldehyde Dehydrogenase (ALDH)
GDNF mRNA = conditions: rat, in vivo
[5] = rabbit, in vivo

For `Cc1ccc2cc3c(ccc4ccccc43)c3c2c1CC3` [methylcholanthrene], the “induction of NQO I” value [1] is listed as “showed induction of NQO I (cell culture)”, the “induction of GST” value [2] is listed as “showed induction of GST (cell culture)” and the CYP1A1 activity [3] is listed as “showed increase CYP1A1 activity (cell”. For the same compound, the “induction of ALDH” value [4] was “showed induction of ALDH (cell culture)”.

For `CCC1(c2ccccc2)C(=O)NC(=O)NC1=O` [phenobarbital], the CYP1A1 activity [3] is listed as “showed increase CYP1A1 activity (cell”.

In the case of `O=c1cc(-c2ccccc2)oc2ccc3ccccc3c12` [β-naphthaoflavone], the CYP1A1 activity [3] is listed as “showed increase CYP1A1 activity (cell”.

In the case of `c1ccc(C2(N3CCCCC3)CCCCC2)cc1` [phencyclidine], the “GDNF mRNA expression” value (GDNF mRNA) is given as “GDNF mRNA expression increased in rats”.

In the case of `CNC(=O)ON=C(C)SC` [methomyl], the “detection in the hair shaft” value [5] is listed as “could be detected”.
